# Assay results taken from the Deep4Chem optical property database.
# Several values for one entry are separate records, joined by “and”; a condition that tells them apart may be missing. Identical values can stand only once.
# Assay: solvent given as SMILES
# [1] = in O=P(c1ccccc1)(c1ccccc1)c1ccccc1Oc1ccccc1P(=O)(c1ccccc1)c1ccccc1
# [2] = in c1cc(-c2cccc(-n3c4ccccc4c4ccccc43)c2)cc(-n2c3ccccc3c3ccccc32)c1
smiles,measurement,setting,value
CCN(CC)c1ccc2c(c1)OC1=CC(N(CC)CC)C=CC1[C+]2c1ccccc1C(=O)O (centres undefined),fluorescence lifetime,in CC(C)O,2.69 ns
same,fluorescence lifetime,in CCCCCCCCO,3.18 ns
same,fluorescence lifetime,in CCCCCCO,3.09 ns
same,fluorescence lifetime,in CCCCO,2.98 ns
same,fluorescence lifetime,in CCCO,2.79 ns
same,fluorescence lifetime,in CCO,2.45 ns
same,fluorescence lifetime,in CO,2.15 ns
same,fluorescence lifetime,in O,1.52 ns
same,fluorescence lifetime,in [2H]O[2H],1.64 ns
Cc1ccc(-c2sc(/C(C#N)=C/c3ccc(C#N)cc3)nc2-c2ccc(Cl)cc2)cc1,fluorescence lifetime,in CC#N,3.02 ns
CC1(C)c2ccccc2-c2cc3c4ccccc4n(-c4ccc(-c5nc(-c6ccccc6)nc(-c6ccccc6)n5)cc4)c3cc21,fluorescence lifetime,[1],9.3 ns
CCCCC(CC)COc1ccc2nc(-c3ccc(-c4ccccc4)s3)sc2c1 (centres undefined),fluorescence lifetime,in ClCCl,1.14 ns
CCN(CC)c1ccc(/N=N/c2nc3ccc(OC)cc3s2)cc1,fluorescence lifetime,in CC#N,2.72 ns
same,fluorescence lifetime,in ClCCl,3.13 ns
CC(=O)O[B-]1(OC(C)=O)OC(/C=C/c2cccc3ccccc23)=CC(/C=C/c2cccc3ccccc23)=[O+]1,fluorescence lifetime,in C1CCOC1,5.75 ns
same,fluorescence lifetime,in CC#N,4.5 ns
same,fluorescence lifetime,in CC(C)=O,4.67 ns
same,fluorescence lifetime,in CS(C)=O,4.24 ns
same,fluorescence lifetime,in Cc1ccccc1,5.13 ns
same,fluorescence lifetime,in ClC(Cl)Cl,5.73 ns
same,fluorescence lifetime,in ClCCl,5.99 ns
CC1=[N+]2C(=C(NC(C)c3ccccc3)c3ccc(C)n3[B-]2(F)F)C=C1c1cc2n(c1)[B-](F)(F)[N+]1=CC=CC1=C2c1c(C)cc(C)cc1C (centres undefined),fluorescence lifetime,in C1CCCCC1,2.07 ns
same,fluorescence lifetime,in CCOC(C)=O,0.52 ns
CCCCCCCCN1c2ccc(C#Cc3ccc(OC)cc3)cc2Sc2cc(C=O)ccc21,fluorescence lifetime,in C1CCOC1,7.1 ns
same,fluorescence lifetime,in CC#N,6.03 ns
same,fluorescence lifetime,in CCCCCC,6.46 ns
same,fluorescence lifetime,in CO,5.08 ns
same,fluorescence lifetime,in CS(C)=O,6.6 ns
same,fluorescence lifetime,in Cc1ccccc1,7.42 ns
same,fluorescence lifetime,in ClC(Cl)Cl,5.65 ns
O=c1cc(C(F)(F)F)c2cc3c4c(c2o1)CCCN4CCC3,fluorescence lifetime,in C1CCCCC1,4.3 ns
same,fluorescence lifetime,in CC#N,5.6 ns
same,fluorescence lifetime,in CCC#N,6.55 ns
same,fluorescence lifetime,in CCCCCCCl,5.72 ns
same,fluorescence lifetime,in CCCCl,5.78 ns
same,fluorescence lifetime,in CCO,3.4 ns and 4.56 ns
same,fluorescence lifetime,in CCOC(C)=O,5.4 ns
same,fluorescence lifetime,in OCC(F)(F)F,3.97 ns
same,fluorescence lifetime,in OCC(O)CO,3.5 ns
Cc1nnc(-c2cc(-c3nnc(C)o3)c(-n3c4ccccc4c4ccccc43)cc2-n2c3ccccc3c3ccccc32)o1,fluorescence lifetime,in Cc1ccccc1,6.5 ns
same,fluorescence lifetime,[1],8.5 ns
O=c1oc2ccccc2cc1-c1ccc(-c2ccc(-c3cc4ccccc4oc3=O)cc2)cc1,fluorescence lifetime,in ClCCl,9.47 ns
COC(=O)C(Cc1ccc2oc(-c3ccc(-n4c5ccccc5c5ccccc54)cc3)nc2c1)NC(=O)OC(C)(C)C (centres undefined),fluorescence lifetime,in C1CCCCC1,1.37 ns
same,fluorescence lifetime,in C1CCOC1,3.32 ns
same,fluorescence lifetime,in C1COCCO1,2.49 ns
same,fluorescence lifetime,in CC1CCCO1,2.78 ns
same,fluorescence lifetime,in CC#N,5.02 ns
same,fluorescence lifetime,in CC(C)(C)O,4.03 ns
same,fluorescence lifetime,in CC(C)=O,4.28 ns
same,fluorescence lifetime,in CC(C)CC(C)(C)C,1.3 ns
same,fluorescence lifetime,in CC(C)O,4.49 ns
same,fluorescence lifetime,in CC(O)CO,5.74 ns
same,fluorescence lifetime,in CCCCCCCO,4 ns
same,fluorescence lifetime,in CCCCCCO,4.11 ns
same,fluorescence lifetime,in CCCCCO,3.36 ns
same,fluorescence lifetime,in CCCCO,4.52 ns
same,fluorescence lifetime,in CCO,5.3 ns
same,fluorescence lifetime,in CCOC(C)=O,3.08 ns
same,fluorescence lifetime,in CCOCC,2.8 ns
same,fluorescence lifetime,in CN(C)C=O,4.97 ns
same,fluorescence lifetime,in CO,5.34 ns
same,fluorescence lifetime,in CS(C)=O,5.45 ns
same,fluorescence lifetime,in Cc1ccccc1,1.84 ns
same,fluorescence lifetime,in OCCO,6.17 ns
O=C1c2ccccc2C2=Nc3cccc4cccc(c34)N12,fluorescence lifetime,in ClCCl,0.86 ns
CC(C)(C)c1ccc(-c2c3c(c(-c4ccccc4)c4cc5ccccc5cc24)Cc2c(c(-c4ccccc4)c4cc5ccccc5cc4c2-c2ccc(C(C)(C)C)cc2)C3)cc1,fluorescence lifetime,in ClCCl,2.67 ns
CCCCC(CC)CN1C(=O)c2cc(Oc3ccc(OC)cc3)c3c4c(Oc5ccc(C(C)(C)C)cc5)cc5c6c(cc(Oc7ccc(C(C)(C)C)cc7)c(c7c(Oc8ccc(OC)cc8)cc(c2c37)C1=O)c64)C(=O)N(c1c(C(C)C)cccc1C(C)C)C5=O (centres undefined),fluorescence lifetime,in Cc1ccccc1,5.32 ns
CC(C)(C)c1ccc(C#Cc2cc3ccc4cc(C#Cc5ccc(C(C)(C)C)cc5)cc5ccc(c2)c3c45)cc1,fluorescence lifetime,in ClCCl,37.1 ns
Cc1ccc(-c2ccc(/C=C/c3ccccc3)cn2)nc1,fluorescence lifetime,in CC#N,1.06 ns
C[Si](C)(C)c1ccc(-c2ccc(-c3ccc(-c4ccc(-c5ccc([Si](C)(C)C)s5)cc4)c4nsnc34)cc2)s1,fluorescence lifetime,in C1CCOC1,4.4 ns
Cc1ccc(-c2ccc(/C=C/c3ccc(N(C)C)cc3)cn2)nc1,fluorescence lifetime,in CC#N,1.22 ns
COc1ccc2c(c1)C(=O)c1cc(OC)cc(OC)c1-2,fluorescence lifetime,in C1CCCCC1,1.3 ns
same,fluorescence lifetime,in CC#N,0.6 ns
CC1(C)c2ccccc2N(c2ccc(-c3ncccn3)cc2)c2ccccc21,fluorescence lifetime,in O=P(c1ccccc1)(c1ccccc1)c1ccc2oc3ccc(P(=O)(c4ccccc4)c4ccccc4)cc3c2c1,11 ns
CCC1=C(C)C2=Cc3c(I)c(I)cn3[B-](F)(F)[N+]2=C1C,fluorescence lifetime,in C1CCCCC1,0.212 ns
same,fluorescence lifetime,in CC(C)=O,0.097 ns
same,fluorescence lifetime,in CCO,0.09 ns
same,fluorescence lifetime,in CCOC(C)=O,0.116 ns
same,fluorescence lifetime,in CO,0.087 ns
same,fluorescence lifetime,in OCC(F)(F)F,0.11 ns
Oc1ccccc1-c1nc2c(c3c1-c1ccccc1CC3)-c1ccccc1CC2,fluorescence lifetime,in ClCCl,2.75 ns
COc1ccc(-c2csc(/C(C#N)=C/c3ccncc3)n2)cc1,fluorescence lifetime,in CC#N,1.92 ns
C(=C\c1ccccc1/C=C/c1c2ccccc2cc2ccccc12)/c1ccncc1,fluorescence lifetime,in C1CCOC1,3.38 ns
[NH3+]c1cc([NH3+])cc(-c2[nH+]c3ccccc3s2)c1,fluorescence lifetime,in O,0.52 ns
CC1(C)CC(/C=C/c2ccc(-n3ccnc3)cc2)=CC(=C(C#N)C#N)C1,fluorescence lifetime,in CCO,0.03 ns
N#Cc1nc2c3ccc(-c4ccc(-n5c6ccccc6c6ccccc65)cc4)cc3c3cc(-c4ccc(-n5c6ccccc6c6ccccc65)cc4)ccc3c2nc1C#N,fluorescence lifetime,in O=P(c1ccccc1)(c1ccccc1)c1cccc(-c2cc(-n3c4ccccc4c4ccccc43)cc(-n3c4ccccc4c4ccccc43)c2)n1,40.6 ns
CC1(C)C(/C=C/C=C/C=C/C=C2/N(CCCCS(=O)(=O)[O-])c3ccc4ccccc4c3C2(C)C)=[N+](CCCCS(=O)(=O)[O-])c2ccc3ccccc3c21,fluorescence lifetime,in CC(C)=O,0.87 ns
same,fluorescence lifetime,in CCO,0.62 ns
same,fluorescence lifetime,in CO,0.51 ns
same,fluorescence lifetime,in CS(C)=O,0.97 ns
same,fluorescence lifetime,in ClC(Cl)Cl,1.14 ns
same,fluorescence lifetime,in ClCCl,0.91 ns
same,fluorescence lifetime,in O,0.17 ns
CCn1c2ccccc2c2cc(C#Cc3cc(C#Cc4ccc5c(c4)c4ccccc4n5CC)nc(N4CCCCC4)n3)ccc21,fluorescence lifetime,in C1CCOC1,2.9 ns
N#CC(C#N)=Cc1ccc2c(c1)c1ccccc1n2-c1cc2ccccc2c2ccccc12,fluorescence lifetime,in ClCCl,4.68 ns
CSC1=C2C=C(c3cc4n(c3)[B-](F)(F)[N+]3=CC=CC3=C4c3c(C)cc(C)cc3C)C(C)=[N+]2[B-](F)(F)n2c(C)ccc21,fluorescence lifetime,in C1CCCCC1,2.67 ns
same,fluorescence lifetime,in CC#N,0.17 ns
same,fluorescence lifetime,in CC(C)=O,0.39 ns
same,fluorescence lifetime,in CCOC(C)=O,0.97 ns
same,fluorescence lifetime,in Cc1ccccc1,1.81 ns
Cc1ccc(/C2=c3\cc/c(o3)=C(\c3ccc(C)cc3)c3ccc([nH]3)-c3ccc4n3[P-](=O)(=O)[N+]3=C(C=CC3=C4c3ccco3)c3ccc2[nH]3)cc1,fluorescence lifetime,in ClC(Cl)Cl,4.2 ns
CSc1sc(C(=O)c2ccccc2)c2nn[nH]c(=O)c12,fluorescence lifetime,in C1CCOC1,0.33 ns
same,fluorescence lifetime,in CC#N,0.41 ns
same,fluorescence lifetime,in CCO,0.28 ns
same,fluorescence lifetime,in CN(C)C=O,0.19 ns
same,fluorescence lifetime,in CO,0.22 ns
same,fluorescence lifetime,in CS(C)=O,0.13 ns
Fc1ccc(/C=C/c2nc3c4ccccc4c4ccccc4c3o2)cc1,fluorescence lifetime,in CC#N,1.88 ns
O=c1c2ccccc2n2c3ccc(-c4ccccc4)cc3c(=O)c3cccc1c32,fluorescence lifetime,[2],5.5 ns
same,fluorescence lifetime,in c1cc(-n2c3ccccc3c3ccccc32)cc(-n2c3ccccc3c3ccccc32)c1,5.5 ns
Cc1ccc(-c2ccc(/C=C/c3ccc(Br)n3C)cn2)nc1,fluorescence lifetime,in CC#N,0.66 ns
CN(C)c1ccc2nc(-c3ccc(C(=O)O)cc3)sc2c1,fluorescence lifetime,in C1CCCCC1,2.4 ns
same,fluorescence lifetime,in c1ccccc1,2.5 ns
Cn1c2ccc(S(=O)(=O)Cl)cc2c(=O)c2cc(S(=O)(=O)Cl)ccc21,fluorescence lifetime,in CS(C)=O,10.6 ns
Cc1ccccc1,fluorescence lifetime,in C1CCCCC1,50 ns
COc1cc2c3cc(OC)c(OC)cc3c3cc4c(C)cc(=O)oc4cc3c2cc1OC,fluorescence lifetime,in ClC(Cl)Cl,4.6 ns
COCCOCCOCCOCC(COCCOCCOCCOC)Oc1cc(/C=C/c2ccc(/C=C(\C#N)c3ccncc3)cc2)c(OC(COCCOCCOCCOC)COCCOCCOCCOC)cc1/C=C/c1ccc(/C=C(\C#N)c2ccncc2)cc1,fluorescence lifetime,in ClCCl,1.7 ns
CC(C)(C)c1ccc2c(c1)B1c3cc(C(C)(C)C)ccc3Oc3cc(-n4c5ccccc5c5c6c(c7ccccc7n6-c6ccccc6)c6c(c7ccccc7n6-c6ccccc6)c54)cc(c31)O2,fluorescence lifetime,in Cc1ccccc1,19.6 ns
c1ccc(N2N=C(c3cccc4ccccc34)CC2c2ccc3ccc4cccc5ccc2c3c45)cc1 (centres undefined),fluorescence lifetime,in ClCCl,2.01 ns
O=C(c1ccc(N2c3ccccc3Oc3ccccc32)cc1)c1cccc(C(=O)c2ccc(N3c4ccccc4Oc4ccccc43)cc2)c1,fluorescence lifetime,[2],24 ns
Cc1cc(C)c(B(c2ccccc2N2c3ccccc3Oc3ccccc32)c2c(C)cc(C)cc2C)c(C)c1,fluorescence lifetime,in Cc1ccccc1,62 ns
N#Cc1ccc(C2=Cc3cc4ccccc4cc3P2(=O)c2ccccc2)cc1 (centres undefined),fluorescence lifetime,in ClCCl,2.5 ns
c1cc2c3c(c1)OCCCCCCCCOc1cccc(c1-c1c4ccccc4c-3c3ccccc13)OCCCCCCCCO2,fluorescence lifetime,in C1CCCCC1,8.01 ns
c1ccc([B-]2(c3ccccc3)Oc3ccc4ccccc4c3-c3c4ccccc4nc[n+]32)cc1,fluorescence lifetime,in Cc1ccccc1,9.59 ns
N#Cc1cnc(-c2c3ccccc3c(-c3ncc(C#N)cn3)c3ccccc23)nc1,fluorescence lifetime,in CCO,2.5 ns
same,fluorescence lifetime,in ClCCl,5.6 ns
CCOC(=O)CN1C(=O)C2=C(c3ccc(C#N)cc3)N(CC(=O)OCC)C(=O)C2=C1c1ccc(C#N)cc1,fluorescence lifetime,in CC#N,6.67 ns
same,fluorescence lifetime,in CS(C)=O,6.5 ns
same,fluorescence lifetime,in Cc1ccccc1,6.48 ns
C[Si]1(C)c2ccc(-c3ccc(-c4cccs4)s3)cc2C=Cc2cc(-c3ccc(-c4cccs4)s3)ccc21,fluorescence lifetime,in ClCCl,0.47 ns
C/C(=N\Nc1ccc(C#N)cc1)c1ccccn1,fluorescence lifetime,in CO,1.69 ns
c1ccc(N(c2ccccc2)c2ccc(-c3ccc(-c4ccc(-c5cccs5)c5nsnc45)s3)cc2)cc1,fluorescence lifetime,in ClC(Cl)Cl,6.62 ns
c1ccc(Nc2nc(Nc3ccccc3)nc(Nc3ccc4c5cccc6cccc(c7cccc3c74)c65)n2)cc1,fluorescence lifetime,in CCOC(C)=O,3.6 ns
same,fluorescence lifetime,in CS(C)=O,4.3 ns
